≈ marks a conversion by molar mass, not a printed value. Calls of active or inactive are those of the source. The calls are words filed in the database; no cut-off is given here.
How the values were obtained:
Candida tropicalis [1] = test: Antifungal activity against Candida tropicalis FMR 8895 infected in immunosuppressed OF1 mouse assessed as reduction in fungal tissue burden in mouse kidney at 50 mg/kg, po qd for 5 days; assay type: functional, organism-based; set-up: dose 50 mg/kg
Candida tropicalis [2] = test: Antifungal activity against Candida tropicalis FMR 8895 assessed as compound concentration causing =>99% reduction in microbial growth; assay type: functional
Candida tropicalis [3] = test: Antifungal activity against Candida tropicalis FMR 9727 infected in immunosuppressed OF1 mouse assessed as reduction in fungal tissue burden in mouse kidney at 50 mg/kg, po qd for 5 days; assay type: functional, organism-based; set-up: dose 50 mg/kg
Candida tropicalis [4] = test: Antifungal activity against Candida tropicalis FMR 9726 assessed as inhibition of growth by broth dilution method; assay type: functional
Candida tropicalis [5] = test: Antifungal activity against Candida tropicalis FMR 9727 infected in immunosuppressed OF1 mouse assessed as reduction in fungal tissue burden in mouse spleen at 50 mg/kg, po qd for 5 days; assay type: functional, organism-based; set-up: dose 50 mg/kg
Candida tropicalis [6] = test: Antifungal activity against Candida tropicalis FMR 8897 assessed as compound concentration causing =>99% reduction in microbial growth; assay type: functional
Candida tropicalis [7] = test: Antifungal activity against Candida tropicalis FMR 10241 assessed as inhibition of growth by broth dilution method; assay type: functional
Candida tropicalis [8] = test: Antifungal activity against Candida tropicalis FMR 10235 assessed as inhibition of growth by broth dilution method; assay type: functional
Candida tropicalis [9] = test: Antifungal activity against Candida tropicalis FMR 10239 assessed as inhibition of growth by broth dilution method; assay type: functional
Candida tropicalis [10] = test: Antifungal activity against Candida tropicalis FMR 9727 infected in immunosuppressed OF1 mouse assessed as reduction in fungal tissue burden in mouse spleen at 25 mg/kg, po bid for 5 days; assay type: functional, organism-based; set-up: dose 25 mg/kg
Candida tropicalis [11] = test: Antifungal activity against Candida tropicalis FMR 8895 infected in immunosuppressed OF1 mouse assessed as prolongation of mouse survival at 50 mg/kg, po qd for 5 days; assay type: functional, organism-based; set-up: dose 50 mg/kg
Candida tropicalis [12] = test: Antifungal activity against Candida tropicalis FMR 10237 infected in immunosuppressed OF1 mouse assessed as reduction in fungal tissue burden in mouse kidney at 25 mg/kg, po bid for 5 days; assay type: functional, organism-based; set-up: dose 25 mg/kg
Candida tropicalis [13] = test: Antifungal activity against Candida tropicalis FMR 10241 assessed as compound concentration causing =>99% reduction in microbial growth; assay type: functional
Candida tropicalis [14] = test: Antifungal activity against Candida tropicalis FMR 8898 assessed as inhibition of growth by broth dilution method; assay type: functional
Candida tropicalis [15] = test: Antifungal activity against Candida tropicalis FMR 8895 infected in immunosuppressed OF1 mouse assessed as reduction in fungal tissue burden in mouse spleen at 50 mg/kg, po qd for 5 days; assay type: functional, organism-based; set-up: dose 50 mg/kg
Candida tropicalis [16] = test: Antifungal activity against Candida tropicalis FMR 9726 infected in immunosuppressed OF1 mouse assessed as prolongation of mouse survival at 50 mg/kg, po qd for 5 days; assay type: functional, organism-based; set-up: dose 50 mg/kg
Candida tropicalis [17] = test: Antifungal activity against Candida tropicalis FMR 8895 infected in immunosuppressed OF1 mouse assessed as reduction in fungal tissue burden in mouse kidney at 25 mg/kg, po bid for 5 days; assay type: functional, organism-based; set-up: dose 25 mg/kg
Candida tropicalis [18] = test: Antifungal activity against Candida tropicalis FMR 10239 infected in immunosuppressed OF1 mouse assessed as reduction in fungal tissue burden in mouse kidney at 25 mg/kg, po bid for 5 dayss; assay type: functional, organism-based; set-up: dose 25 mg/kg
Candida tropicalis [19] = test: Antifungal activity against Candida tropicalis FMR 10236 assessed as inhibition of growth by broth dilution method; assay type: functional
Candida tropicalis [20] = test: Antifungal activity against Candida tropicalis FMR 9726 infected in immunosuppressed OF1 mouse assessed as reduction in fungal tissue burden in mouse kidney at 25 mg/kg, po bid for 5 days; assay type: functional, organism-based; set-up: dose 25 mg/kg
Candida tropicalis [21] = test: Antifungal activity against Candida tropicalis FMR 10237 infected in immunosuppressed OF1 mouse assessed as reduction in fungal tissue burden in mouse spleen at 25 mg/kg, po bid for 5 days; assay type: functional, organism-based; set-up: dose 25 mg/kg
Candida tropicalis [22] = test: Antifungal activity against Candida tropicalis FMR 8895 assessed as inhibition of growth by broth dilution method; assay type: functional
Candida tropicalis [23] = test: Antifungal activity against Candida tropicalis FMR 9726 infected in immunosuppressed OF1 mouse assessed as prolongation of mouse survival at 25 mg/kg, po bid for 5 days; assay type: functional, organism-based; set-up: dose 25 mg/kg
Candida tropicalis [24] = test: Antifungal activity against Candida tropicalis FMR 10237 assessed as inhibition of growth by broth dilution method; assay type: functional
Candida tropicalis [25] = test: Antifungal activity against Candida tropicalis FMR 10236 assessed as compound concentration causing =>99% reduction in microbial growth; assay type: functional
Candida tropicalis [26] = test: Antifungal activity against Candida tropicalis FMR 10239 infected in immunosuppressed OF1 mouse assessed as prolongation of mouse survival at 25 mg/kg, po bid for 5 days; assay type: functional, organism-based; set-up: dose 25 mg/kg
Candida tropicalis [27] = test: Antifungal activity against Candida tropicalis FMR 9726 assessed as compound concentration causing =>99% reduction in microbial growth; assay type: functional
Candida tropicalis [28] = test: Antifungal activity against Candida tropicalis FMR 9726 infected in immunosuppressed OF1 mouse assessed as reduction in fungal tissue burden in mouse kidney at 50 mg/kg, po qd for 5 days; assay type: functional, organism-based; set-up: dose 50 mg/kg
Candida tropicalis [29] = test: Antifungal activity against Candida tropicalis FMR 9727 infected in immunosuppressed OF1 mouse assessed as reduction in fungal tissue burden in mouse kidney at 25 mg/kg, po bid for 5 days; assay type: functional, organism-based; set-up: dose 25 mg/kg
Candida tropicalis [30] = test: Antifungal activity against Candida tropicalis FMR 9727 assessed as inhibition of growth by broth dilution method; assay type: functional
Candida tropicalis [31] = test: Antifungal activity against Candida tropicalis FMR 10237 infected in immunosuppressed OF1 mouse assessed as prolongation of mouse survival at 50 mg/kg, po qd for 5 days; assay type: functional, organism-based; set-up: dose 50 mg/kg
Candida tropicalis [32] = test: Antifungal activity against Candida tropicalis FMR 10235 assessed as compound concentration causing =>99% reduction in microbial growth; assay type: functional

Compound: CC[C@@H]([C@H](C)O)n1ncn(-c2ccc(N3CCN(c4ccc(OC[C@@H]5CO[C@@](Cn6cncn6)(c6ccc(F)cc6F)C5)cc4)CC3)cc2)c1=O [POSACONAZOLE]
- Activity (Candida tropicalis [1]): inactive
- MFC (Candida tropicalis [2]): > 16 µg/mL
- Activity (Candida tropicalis [3]): Active
- MIC50 (Candida tropicalis [4]): 0.5 µg/mL (≈ 0.713 µM)
- Activity (Candida tropicalis [5]): Active
- MFC (Candida tropicalis [6]): > 16 µg/mL
- MIC50 (Candida tropicalis [7]): 0.125 µg/mL (≈ 0.178 µM)
- MIC50 (Candida tropicalis [8]): 0.125 µg/mL (≈ 0.178 µM)
- MIC50 (Candida tropicalis [9]): < 0.03 µg/mL
- Activity (Candida tropicalis [10]): Active
- Activity (Candida tropicalis [11]): Active
- Activity (Candida tropicalis [12]): Active
- MFC (Candida tropicalis [13]): > 16 µg/mL
- MIC50 (Candida tropicalis [14]): 0.125 µg/mL (≈ 0.178 µM)
- Activity (Candida tropicalis [15]): inactive
- Activity (Candida tropicalis [16]): Active
- Activity (Candida tropicalis [17]): inactive
- Activity (Candida tropicalis [18]): Active
- MIC50 (Candida tropicalis [19]): 0.06 µg/mL (≈ 0.0856 µM)
- Activity (Candida tropicalis [20]): Active
- Activity (Candida tropicalis [21]): Active
- MIC50 (Candida tropicalis [22]): > 16 µg/mL
- Activity (Candida tropicalis [23]): Active
- MIC50 (Candida tropicalis [24]): 1 µg/mL (≈ 1.43 µM)
- MFC (Candida tropicalis [25]): > 16 µg/mL
- Activity (Candida tropicalis [26]): Active
- MFC (Candida tropicalis [27]): > 16 µg/mL
- Activity (Candida tropicalis [28]): Active
- Activity (Candida tropicalis [29]): Active
- MIC50 (Candida tropicalis [30]): < 0.03 µg/mL
- Activity (Candida tropicalis [31]): Active
- MFC (Candida tropicalis [32]): > 16 µg/mL

Source: ChEMBL document CHEMBL1212752, “Efficacy of posaconazole in a murine disseminated infection by Candida tropicalis” (2010)
